Experimental data: US20030091533A1, “Regulation of mononuclear phagocyte stimulation” (priority 2001, published 2003)
Marks after values point to notes of the source that are not given here.

B1: IFN-γ: Interferon gamma, primes mononuclear phagocytes, 200 U/ml (protein, UniProt P01579 24-161, looked up)
Interferon gamma: QDPYVKEAENLKKYFNAGHSDVADNGTLFLGILKNWKEESDRKIMQSQIVSFYFKLFKNFKDDQSIQKSVETIKEDMNVKFFNSNKKKRDDFEKLTNYSVTDLNVQRKAIHELIQVMAELSPAAKTGKRKRSQMLFRG

Columns and labels:
Format in all cases: cell-based, human
CD14 = CD14 surface expression on PBM by FACS; conditions: for CD14 expression (MFI): PBM preincubated 24 hour, 20 ng/ml IL-9 or IL-4, 200 U/ml IFN-γ, means±SD, medium 107 ± 4; for CD14 expression on the surface of PBM compared with medium alone: preincubated for 24 hour
Experimental: Table 2. Cells (0.2×10^6) were preincubated for 24 hour with cytokines (20 ng/ml for IL-9 or IL-4 and 200 U/ml for IFN-γ), before the assessment of LPS receptor expression by immunostaining using anti-human CD14 mAb conjugated to FITC and anti-human TLR4 rabbit Ab followed by mouse anti-rabbit IgG (MAR-FITC). Cell-associated fluorescence was evaluated by FACS and expressed as mean fluorescence intensity (MFI). Autofluorescence of PBM was negligible (MFI: 3±1). Data are means±SD (n=3), and are representative of two experiments. *P<0.05 compared with cells preincubated with medium.
Additional stainings for CD14 and Toll-like receptor (TLR)-4 were performed on PBM preincubated for 24 hour with cytokines, using respectively FITC-conjugated anti-CD14 mAb (clone MøP9, mIgG2b, Becton Dickinson) and anti-TLR4 rabbit Ab (Santa Cruz, Calif.) followed by F (ab′)2 fragments of mouse anti-rabbit IgG (MAR)-FITC.

LPS-stimulated PBM = experiment: Intracellular oxidative burst, DCFH oxidation assay, PBM; conditions: for oxidative burst in LPS-stimulated PBM with IFN-γ: preincubated 24 hour with cytokine 20 ng/ml in the presence of IFN-γ 200 U/ml, LPS 1 μg/ml 20 hour; for LPS-stimulated oxidative burst in PBM: preincubation 24 hour with cytokine 20 ng/ml, then LPS 1 μg/ml 20 hour, without IFN-γ; for Oxidative burst (nmoles DCF/mg protein): LPS 1 μg/ml 20 h
Experimental: Intracellular oxidative capacity was assessed essentially as described by Bass et al., J. Immunol., 130:1910-1917 (1983) (incorporated herein by reference) as described infra.
Cells (0.2×10^6) were preincubated for 24 hour with IL-9 or IL-4 (20 ng/ml) in the presence of IFN-γ (200 U/ml) before stimulation for 20 hour with LPS (1 μg/ml). The intracellular oxidative capacity was measured through the DCFH oxidation assay as describe herein. FIG. 3 depicts the effect of IFN-γ on the inhibition mediated by IL-9 and IL-4 on the oxidative burst in LPS-stimulated PBM (A) and AM (B).
Table 1. Specific blockade of the IL-9 inhibitory effect on oxidative burst in LPS-15 stimulated PBM and AM by anti-hIL-9R mAb. Cells (0.2×10^6) were preincubated with neutralizing mAb against hIL-9R (AH9R7, 10 μg/ml), or with control mIgG2b (10 μg/ml), 1 hour before incubation with IL-9 (20 ng/ml) for 24 hour without removing mAb, and stimulated by LPS (1 μg/ml) for 20 h. Intracellular oxidative capacity was evaluated by the DCFH oxidation assay. Data are means±SEM obtained from three experiments, triplicate conditions being performed in each experiment. *P<0.001 compared with cells preincubated with IL-9 (with or without control mIgG2b).
Cells (0.2×10^6) were preincubated with neutralizing mAb, either against TGF-β1 (30 μg/ml) or against IL-10Rβ (30 μg/ml) or with control mIgG1 (30 μg/ml), 2 hour before incubation with IL-9 (20 ng/ml) for 24 hour without removing the mAb, and stimulated with LPS (1 μg/ml) for 20 h. Intracellular oxidative capacity was evaluated by the DCFH oxidation assay.
Intracellular oxidative capacity was assessed as described by Bass et al., (Bass et al., J. Immunol. 130:1910-1917 (1983)). Briefly, the PBM and AM samples were distributed in 96-well plates with flat bottoms (Falcon) to provide 0.2×10^6cells/well. The cells were preincubated for 24 hour at 37° C., 5% CO2 with cytokines (200 u/ml for IFN-y, 20 ng/ml for IL-9 and 20 ng/ml; for IL-4) in cRPMI before being stimulated for 20 hours with LPS (1 μg/ml) without removing the cytokines. At the end of incubation with cytokines and/or LPS, cells were loaded for 15 min with 15 μM DCFH-DA in cRPMI which, after passive penetration into cells, is hydrolyzed into nonfluorescent polar DCFH and trapped inside the cells. DCFH is then oxidized into highly fluorescent DCF according to the intracellular amount of hydrogen peroxide (H2O2) produced by the respiratory burst. After three washings with phosphate-buffered saline (PBS, pH 7.4), cells were lysed in 0.1% v/v Triton X100 (Sigma) in PBS, and fluorescence was quantified in a computerized microplate spectrofluorimeter (Packard Instruments, Downers Grove, Ill., USA) at 485 nm excitation/530 nm emission wavelengths. DCF concentrations were deduced from a standard curve of known concentrations of fluorescent DCF (ranging from 0.08 to 10 μM in lysis buffer) Results were corrected for total protein concentration determined in cell lysates by the bicinchoninic acid-based method (Pierce, Rockford, Ill., USA), and were expressed as nmoles DCF/mg cell protein.

PMA-stimulated PBM = experiment: Extracellular O2- release, SOD-inhibitable reduction of ferricytochrome c; conditions: for effect on the basal oxidative burst: incubation for 24 hour, PBM without stimulation
Experimental: Extracellular release of O2-derived radicals was evaluated by the SOD-inhibitable reduction of ferricytochrome c, as previously described (Pick, Methods in Enzymology, 132:407-421 (1986)) as described infra.
Extracellular release of O2-derived radicals was evaluated by the SOD-inhibitable reduction of ferricytochrome c, as previously described (Pick, Methods in Enzymology, 132:407-421 (1986)). Briefly, after incubation with IL-9 and IL-4 (20 ng/ml) for 1 hour, 4 hour 24 hour and 96 hour, cells were washed three times in Hank's balanced salt solution without phenol red (HBSS) to remove the phenol red-containing medium and incubated at 37° C. with HBSS containing 160 μM ferricytochrome c (plus 300 IU/ml SOD as control for each condition), and concomittantly with 100 ng/ml PMA when indicated. Optical density (OD) at 550 nm was then recorded in a plate spectrometer (Titertek Multiscan Plus MKII, Labsystems, Finland) after 60 min. The released amount of superoxide anion (O2^−) was deduced from the absorbance values at 550 nm (after subtraction of control values with SOD) using the cytochrome c extinction coefficient of 21×10^3 M^−1 cm^−1 (See Massey, Biochim Biophys Acta, 34: 255(1959)). Results were expressed as nmoles O2^− per 10^6 cells per hour (FIG. 1).

Molecule | CD14 expression (MFI) (CD14) | CD14 expression on the surface of PBM compared with medium alone (CD14) | oxidative burst in LPS-stimulated PBM with IFN-γ (LPS-stimulated PBM) | LPS-stimulated oxidative burst in PBM (LPS-stimulated PBM) | effect on O2^− release by PMA-stimulated PBM (PMA-stimulated PBM; 24 hour of preincubation) | effect on O2^− release by PMA-stimulated PBM (PMA-stimulated PBM; 96 hour of preincubation) | effect on the basal oxidative burst (PMA-stimulated PBM) | effect on the up regulation of CD14 on PBM incubated with IFN-γ (CD14; co-incubation with IFN-γ) | Oxidative burst (nmoles DCF/mg protein) (LPS-stimulated PBM; Table 1, PBM, mAb 10 μg/ml 1 hour before IL-9 20 ng/ml 24 hour, means±SEM, medium 10.1 ± 0.4) | Oxidative burst (nmoles DCF/mg protein) (LPS-stimulated PBM; Table 3, PBM, mAb 30 μg/ml 2 hour before IL-9 20 ng/ml 24 hour, means±SD, Medium 10.3 ± 0.2) | O2^− release by PMA-stimulated PBM (PMA-stimulated PBM; preincubation 24 hour, 20 ng/ml, PMA 100 ng/ml, medium-preincubated cells 40.1±2.5) | effect on O2^− release by PMA-stimulated PBM (PMA-stimulated PBM; shorter preincubation periods (1 hour, 4 hour)) | effect on LPS-stimulated oxidative burst in PBM (LPS-stimulated PBM; preincubation 24 hour, LPS 20 hour)
IL-4: Th2 cytokine interleukin-4 used as comparator, 20 ng/ml | 57 ± 3* MFI | down regulated | 19.6±2.2 nmoles DCF/mg protein | 9.4±0.6 nmoles DCF/mg protein | same inhibitory effect | significantly increased | little effect |  |  |  |  |  | 
IL-9: Human IL-9 purified from SF9 insect cell cultures infected with recombinant baculovirus | 108 ± 5 MFI | not significantly different | 10.5±2.1 nmoles DCF/mg protein | 10.7±0.5 nmoles DCF/mg protein |  | not further increased | little effect | inhibited | 10.7 ± 0.5 nmoles DCF/mg protein | 10.8 ± 0.6 nmoles DCF/mg protein | 23.2±0.8 nmoles 02-per 10^6 cells. h^−1 | not significant | 
B1 | 121 ± 6* MFI | increased |  |  | slightly up regulated |  |  |  |  |  |  |  | slightly increased
